The structures appear in SMILES notation. pEC50: −log10 of the molar value.

The first test deals with T1, GCase (Homo sapiens, UniProt P04062).
T1 construct: endogenous in cells; host or cells: HeLa cells
T1 sequence (P04062 40-536): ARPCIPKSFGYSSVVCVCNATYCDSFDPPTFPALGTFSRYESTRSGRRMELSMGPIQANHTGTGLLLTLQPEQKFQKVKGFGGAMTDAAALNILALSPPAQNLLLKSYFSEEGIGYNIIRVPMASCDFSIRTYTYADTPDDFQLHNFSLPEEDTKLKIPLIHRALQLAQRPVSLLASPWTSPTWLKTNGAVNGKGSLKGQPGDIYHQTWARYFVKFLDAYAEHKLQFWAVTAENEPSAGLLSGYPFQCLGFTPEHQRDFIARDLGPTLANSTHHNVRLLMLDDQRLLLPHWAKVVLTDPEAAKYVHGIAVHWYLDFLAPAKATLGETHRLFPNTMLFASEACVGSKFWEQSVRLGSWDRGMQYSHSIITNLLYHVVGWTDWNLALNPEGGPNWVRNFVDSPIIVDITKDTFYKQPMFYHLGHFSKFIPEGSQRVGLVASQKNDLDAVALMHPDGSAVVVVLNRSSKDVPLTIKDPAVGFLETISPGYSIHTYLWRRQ
Nature of the test: activation of GCase in a live cell PFB assay in HELA cells. Type of test: cell-based. The settings on record: EC50 given as range classes. Here is the method:
Exemplary compounds were evaluated for activation of GCase in a live cell PFB assay in HELA cells (essentially as described in Ysselstein et al., “LRRK2 kinase activity regulates lysosomal glucocerebrosidase in neurons derived from Parkinson's disease patients” Nature Communications (2019) 10:5570). […] EC50 ranges: A: <10 μM; B: >10-50 μM; C: >50-100 μM; D: >100 μM.
In turn, `Cc1nc(N2CC3(CCN(c4cnc5c(C)nn(CC(F)(F)F)c5n4)CC3)C2)cc(C(F)(F)F)n1` [Cmpd 610] had a pEC50 of over 5.00.

On to `Cc1nc(N2CCC3(CCN(c4cnc5c(C)nn(CC(F)(F)F)c5n4)CC3)C2)cc(C(F)(F)F)n1` [Cmpd 611], for which the pEC50 was under 4.00.

On to `Cc1nc(N2CC3(CCN(c4cc5c(cn4)c(C)nn5CC(F)F)C3)C2)cc(C(F)(F)F)n1` [Cmpd 612], for which the negative logarithm of the EC50 (pEC50) is 4.00 to 4.30.

`Cc1nc(N2CC3(CCN(c4cc5c(cn4)c(C)nn5CC(F)F)CC3)C2)cc(C(F)(F)F)n1` [Cmpd 613] had a pEC50 of over 5.00.

Compound `Cc1nc(N2CC3(CCN(c4cc5c(cn4)c(C)nn5CC(F)F)CC3)CC2=O)cc(C(F)(F)F)n1` [Cmpd 614] had a pEC50 of 4.30 to 5.00.

In turn, `Cc1nn(CC(F)(F)F)c2nc(N3CCC4(CCN(c5cnc(C(F)(F)F)nc5)C4)C3)ncc12` (stereo not drawn) [Cmpd 615] had a pEC50 of 4.30 to 5.00.

`Cc1nc(N2CCC3(CCN(c4ncc5c(C)nn(CC(F)(F)F)c5n4)C3)C2)cc(C(F)(F)F)n1` (stereo not drawn) [Cmpd 616] showed a pEC50 of 4.30 to 5.00.

For `Cc1nc(N2CCC3(C2)CN(c2ncc4c(C)nn(CC(F)(F)F)c4n2)C3)cc(C(F)(F)F)n1` [Cmpd 617], the pEC50 is 4.30 to 5.00.

`Cc1nc(N2CC3(CCN(c4ncc5c(C)nn(CC(F)(F)F)c5n4)CC3)C2)cc(C(F)(F)F)n1` [Cmpd 618] had a pEC50 of 4.30 to 5.00.

Take `Cc1nc(N2CCC3(CCN(c4ncc5c(C)nn(CC(F)(F)F)c5n4)CC3)C2)cc(C(F)(F)F)n1` [Cmpd 619]: the pEC50 was 4.30 to 5.00.

Regarding `Cc1ncc(N2CC3(CCN(c4ncc5c(C)nn(CC(F)(F)F)c5n4)C3)C2)c(C(F)(F)F)n1` [Cmpd 620], the pEC50 is 4.30 to 5.00.

Consider `Cc1nc(N2CC3(CCN(c4ccc5cnn(CC(F)F)c5n4)C3)C2)cc(C(F)(F)F)n1` [Cmpd 621], for which the pEC50 is 4.30 to 5.00.

With `Cc1nc(N2CC3(CCN(c4ccc5c(C)nn(CC(F)F)c5n4)C3)C2)cc(C(F)(F)F)n1` [Cmpd 622], the pEC50 is 4.30 to 5.00.

Take `Cc1nc(N2CC3(CCN(c4ccc5cnn(CC(F)F)c5n4)CC3)C2)cc(C(F)(F)F)n1` [Cmpd 623]: the pEC50 is over 5.00.

With `Cc1nc(N2CC3(CCN(c4ccc5c(C)nn(CC(F)F)c5n4)CC3)C2)cc(C(F)(F)F)n1` [Cmpd 624], the pEC50 was over 5.00.

`Cc1nc(N2CCC3(CCN(c4ccc5cnn(CC(F)F)c5n4)CC3)C2)cc(C(F)(F)F)n1` [Cmpd 625] had a pEC50 of over 5.00.

In turn, `Cc1nc(N2CCC3(CCN(c4ccc5c(C)nn(CC(F)F)c5n4)CC3)C2)cc(C(F)(F)F)n1` [Cmpd 626] gave a pEC50 of over 5.00.

For `Cc1nc(N2CC3(CCN(c4ccc5cnn(CC(F)F)c5n4)CC3)CC2=O)cc(C(F)(F)F)n1` [Cmpd 627], the pEC50 was over 5.00.

With `Cc1nc(N2CC3(CCN(c4ccc5c(C)nn(CC(F)F)c5n4)CC3)CC2=O)cc(C(F)(F)F)n1` [Cmpd 628], the pEC50 is over 5.00.

In turn, `Cc1nc(N2CC3(CCN(c4ncc5cnn(C(C)(C)C)c5n4)C3)C2)cc(C(F)(F)F)n1` [Cmpd 629] had a pEC50 of 4.30 to 5.00.

The compound `Cc1nc(N2CCC3(CCN(c4cc5c(cn4)c(C)nn5CC(F)F)CC3)C2)cc(C(F)(F)F)n1` [Cmpd 630] gave a pEC50 of 4.30 to 5.00.

With `Cc1nc(N2CC3(CCN(c4cc5c(cn4)cnn5CC(F)F)C3)C2)cc(C(F)(F)F)n1` [Cmpd 631], the pEC50 was 4.30 to 5.00.

Compound `Cc1nc(N2CC3(CCN(c4cc5c(cn4)cnn5CC(F)F)CC3)C2)cc(C(F)(F)F)n1` [Cmpd 632] had a pEC50 of over 5.00.

For the compound `Cc1nc(N2CCC3(CCN(c4cc5c(cn4)cnn5CC(F)F)CC3)C2)cc(C(F)(F)F)n1` [Cmpd 633], the pEC50 is over 5.00.

The test is the same for the next values; noted with them: activation of GCase, EC50 ranges.
As to `Cc1nc(N2CC3(CCN(c4cc5c(cn4)cnn5CC(F)F)CC3)CC2=O)cc(C(F)(F)F)n1` [Cmpd 634], the pEC50 is over 5.00.

Turning to `FC(F)Cn1ncc2ncc(N3CCC4(C3)CN(c3ccnc(C(F)(F)F)c3)C4)cc21` [Cmpd 635], the pEC50 is over 5.00.

`Cc1nc(N2CC3(CCN(c4cnc5cnn(CC(F)F)c5c4)C3)C2)cc(C(F)(F)F)n1` [Cmpd 636]: the pEC50 is over 5.00.

`Cc1nc(N2CC3(CCN(c4ccc5nccn5n4)C3)C2)cc(C(F)(F)F)n1` [Cmpd 637] showed a pEC50 of 4.30 to 5.00.

Take `Cc1cn2nc(N3CCC4(CN(c5cc(C(F)(F)F)nc(C)n5)C4)C3)ccc2n1` [Cmpd 638]: the pEC50 is 4.30 to 5.00.

Consider `Cc1cc(N2CC3(CCN(c4cnc5cnn(CC(F)F)c5n4)C3)C2)nc(C)n1` [Cmpd 639], for which the pEC50 is 4.30 to 5.00.

`Cc1cc(N2CC3(CCN(c4cnc5c(C)nn(CC(F)F)c5n4)C3)C2)nc(C)n1` [Cmpd 640] showed a pEC50 of 4.30 to 5.00.

`Cc1cc(N2CC3(CCN(c4ncc5c(C)nn(CC(F)F)c5n4)C3)C2)nc(C)n1` [Cmpd 641] showed a pEC50 of 4.30 to 5.00.

In turn, `Cc1cc(N2CC3(CCN(c4ncc5cnn(CC(F)F)c5n4)C3)C2)nc(C)n1` [Cmpd 642] showed a pEC50 of 4.30 to 5.00.

For `Cc1cc(N2CC3(CCN(c4ncc5cnn(C6COC6)c5n4)C3)C2)nc(C)n1` [Cmpd 643], the pEC50 was 4.30 to 5.00.

Take `Cc1cc(N2CC3(CCN(c4ncc5c(C)nn(C6COC6)c5n4)C3)C2)nc(C)n1` [Cmpd 644]: the negative-log EC50 (pEC50) is 4.30 to 5.00.

`Cc1cc(N2CC3(CCN(c4cnc5c(C)nn(C6COC6)c5n4)C3)C2)nc(C)n1` [Cmpd 645] gave a pEC50 of 4.30 to 5.00.

The compound `Cc1cc(N2CC3(CCN(c4cnc5cnn(C6COC6)c5n4)C3)C2)nc(C)n1` [Cmpd 646] gave a pEC50 of 4.30 to 5.00.

Regarding `Cc1nc(N2CC3(CCN(c4ncc5cnn(C)c5n4)C3)C2)cc(C(F)(F)F)n1` [Cmpd 647], the pEC50 is 4.30 to 5.00.

For `Cc1nc(N2CC3(CCN(c4ncc5c(C)nn(C)c5n4)C3)C2)cc(C(F)(F)F)n1` [Cmpd 648], the pEC50 is over 5.00.

With `Cc1nc(N2CC3(CCN(c4cnc5cnn(C)c5n4)C3)C2)cc(C(F)(F)F)n1` [Cmpd 649], the pEC50 was 4.30 to 5.00.

For the compound `Cc1nc(N2CC3(CCN(c4ncc5cnn(C(F)F)c5n4)C3)C2)cc(C(F)(F)F)n1` [Cmpd 650], the negative logarithm of the EC50 (pEC50) was over 5.00.

In turn, `Cc1nc(N2CC3(CCN(c4ncc5cn(C(F)F)nc5n4)C3)C2)cc(C(F)(F)F)n1` [Cmpd 651] showed a pEC50 of 4.30 to 5.00.

`Cc1ncc(N2CC3(CCN(c4cnc5cnn([C@H]6CCOC6)c5n4)C3)C2)c(C(F)(F)F)n1` [Cmpd 652] showed a pEC50 of under 4.00.

For the compound `Cc1ncc(N2CC3(CCN(c4cnc5cnn([C@@H]6CCOC6)c5n4)C3)C2)c(C(F)(F)F)n1` [Cmpd 653], the pEC50 was under 4.00.

`FC(F)(F)c1ncc(N2CC3(CCN(c4cnc5cnn([C@H]6CCOC6)c5n4)C3)C2)cn1` [Cmpd 654]: the pEC50 is 4.30 to 5.00.

For the compound `FC(F)(F)c1ncc(N2CC3(CCN(c4cnc5cnn([C@@H]6CCOC6)c5n4)C3)C2)cn1` [Cmpd 655], the pEC50 was 4.30 to 5.00.

`Cc1nc(C(F)(F)F)ncc1N1CC2(CCN(c3cnc4cnn([C@H]5CCOC5)c4n3)C2)C1` [Cmpd 656] showed a pEC50 of 4.00 to 4.30.

For the compound `Cc1nc(C(F)(F)F)ncc1N1CC2(CCN(c3cnc4cnn([C@@H]5CCOC5)c4n3)C2)C1` [Cmpd 657], the pEC50 is 4.30 to 5.00.

Compound `Cc1nc(C(F)(F)F)ncc1N1CCC2(CCN(c3ncc4c(C)nn(CC(F)(F)F)c4n3)C2)C1` (stereo not drawn) [Cmpd 658] showed a pEC50 of 4.30 to 5.00.

`Cc1ncc(N2CCC3(CCN(c4ncc5c(C)nn(CC(F)(F)F)c5n4)C3)C2)c(C(F)(F)F)n1` (stereo not drawn) [Cmpd 659] showed a pEC50 of 4.30 to 5.00.

For the compound `FC(F)(F)c1ccc(N2CC3(CCN(c4cnc5cnn(C6COC6)c5n4)C3)C2)cn1` [Cmpd 660], the negative-log EC50 (pEC50) was 4.30 to 5.00.

The compound `CC1(C)CC2(CCN(c3cnc4cnn(CC(F)F)c4n3)CC2)C(=O)N1c1cc(C(F)(F)F)ccn1` [Cmpd 661] had a pEC50 of 4.30 to 5.00.

In turn, `CC1(C)N(c2cc(C(F)(F)F)ccn2)C(=O)CC12CCN(c1cnc3cnn(CC(F)F)c3n1)CC2` [Cmpd 662] gave a pEC50 of 4.30 to 5.00.

`CCC1N(c2cc(C(F)(F)F)ccn2)C(=O)CC12CCN(c1cnc3cnn(CC(F)F)c3n1)CC2` (stereo not drawn) [Cmpd 663] had a pEC50 of 4.30 to 5.00.

Turning to `O=C1N(c2nc(C(F)(F)F)c(F)cc2F)CCC12CCN(c1cnc3cnn(CC(F)F)c3n1)CC2` [Cmpd 664], the pEC50 is 4.30 to 5.00.

The compound `COc1cc(N2CCC3(CCN(c4cnc5cnn(CC(F)F)c5n4)CC3)C2=O)nc(C(F)(F)F)c1` [Cmpd 665] had a pEC50 of under 4.00.

Compound `Cn1c(N2CCC3(CCN(c4cnc5cnn(CC(F)F)c5n4)CC3)C2=O)cc(=O)cc1C(F)(F)F` [Cmpd 666] had a pEC50 of over 5.00.

Take `O=C1CC2(CCN1c1cnc3cnn(CC(F)F)c3n1)CN(c1cccc(C(F)(F)F)n1)C2` [Cmpd 667]: the pEC50 was 4.00 to 4.30.

Compound `CC1CC2(CCN(c3cccc(C(F)(F)F)n3)C2=O)CCN1c1cnc2cnn(CC(F)F)c2n1` (stereo not drawn) [Cmpd 668] gave a pEC50 of over 5.00.

In turn, `CC1CN(c2cnc3cnn(CC(F)F)c3n2)CC[C@@]12CCN(c1cccc(C(F)(F)F)n1)C2=O` (stereo partly drawn) [Cmpd 670] showed a pEC50 of 4.30 to 5.00.

For the compound `CN(C)C(=O)c1cccc(N2CCC3(CCN(c4cnc5cnn(CC(F)F)c5n4)CC3)C2=O)n1` [Cmpd 671], the pEC50 is over 5.00.

On to `COCCOc1cccc(N2CCC3(CCN(c4cnc5cnn(CC(F)F)c5n4)CC3)C2=O)n1` [Cmpd 672], for which the pEC50 is 4.30 to 5.00.

The compound `O=C1N(c2ccc(C(F)(F)F)nc2)CCC12CCN(c1cnc3cnn(CC(F)F)c3n1)CC2` [Cmpd 673] showed a pEC50 of over 5.00.

The record behind these values is US20250034170A1, “SMALL MOLECULE MODULATORS OF GLUCOCEREBROSIDASE ACTIVITY AND USES THEREOF” (Vanqua Bio, Inc., priority 2021, published 2025).
